Molecular target: PDE3A (phosphodiesterase enzyme 3A) (Homo sapiens, UniProt Q14432)
Assay: MS/MS assay of cAMP hydrolysis to AMP by purchased PDE3A, dose-response
Format: biochemical

Chain of PDE3A (phosphodiesterase enzyme 3A) (Q14432 whole entry): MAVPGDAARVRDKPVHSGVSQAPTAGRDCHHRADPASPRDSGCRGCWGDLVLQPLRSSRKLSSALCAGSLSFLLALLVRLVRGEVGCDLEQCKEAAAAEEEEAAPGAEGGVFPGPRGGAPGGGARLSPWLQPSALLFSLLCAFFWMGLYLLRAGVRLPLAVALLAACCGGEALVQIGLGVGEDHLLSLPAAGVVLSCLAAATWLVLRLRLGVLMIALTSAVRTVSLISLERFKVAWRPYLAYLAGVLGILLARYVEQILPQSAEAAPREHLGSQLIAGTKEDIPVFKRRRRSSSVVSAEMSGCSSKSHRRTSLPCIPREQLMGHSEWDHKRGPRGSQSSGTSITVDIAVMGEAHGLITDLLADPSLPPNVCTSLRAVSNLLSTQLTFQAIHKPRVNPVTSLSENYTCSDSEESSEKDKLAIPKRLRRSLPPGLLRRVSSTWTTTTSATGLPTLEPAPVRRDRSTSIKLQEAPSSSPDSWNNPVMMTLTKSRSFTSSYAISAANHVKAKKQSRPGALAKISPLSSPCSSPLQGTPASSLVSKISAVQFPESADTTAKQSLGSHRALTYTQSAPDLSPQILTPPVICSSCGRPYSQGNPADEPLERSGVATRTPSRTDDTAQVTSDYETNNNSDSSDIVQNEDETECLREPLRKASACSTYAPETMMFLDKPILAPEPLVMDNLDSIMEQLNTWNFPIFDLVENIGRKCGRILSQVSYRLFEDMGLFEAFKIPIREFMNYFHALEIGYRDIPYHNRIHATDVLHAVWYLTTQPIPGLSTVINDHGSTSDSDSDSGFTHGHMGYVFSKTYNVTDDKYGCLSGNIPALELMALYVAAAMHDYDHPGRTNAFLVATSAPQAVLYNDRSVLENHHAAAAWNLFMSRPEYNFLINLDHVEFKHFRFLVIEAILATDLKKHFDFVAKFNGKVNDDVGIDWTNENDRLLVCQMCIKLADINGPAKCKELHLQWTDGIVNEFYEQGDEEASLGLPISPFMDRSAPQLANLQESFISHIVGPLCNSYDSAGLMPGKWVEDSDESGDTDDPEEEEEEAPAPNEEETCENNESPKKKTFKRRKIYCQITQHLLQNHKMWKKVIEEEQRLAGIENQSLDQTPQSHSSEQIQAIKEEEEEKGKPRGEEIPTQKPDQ

IC50: 0.41 µM
Structure (SMILES): CCOC(=O)N1CCC(NC(=O)c2cc(C#N)c(=O)[nH]c2C)CC1 [DF492]

Source: PMC7221589, “Development of a Rapid Mass Spectrometric Determination of AMP and Cyclic AMP for PDE3 Activity Study: Application and Computational Analysis for Evaluating the Effect of a Novel 2-oxo-1,2-dihydropyridine-3-carbonitrile Derivative as PDE-3 Inhibitor” (Molecules, 2020)
